Laboratory results from paper PMC7144325, “Discovery of novel ATAD2 bromodomain inhibitors that trigger apoptosis and autophagy in breast cells by structure-based virtual screening” (Journal of Enzyme Inhibition and Medicinal Chemistry, 2020).
“Also recorded” adds a separate entry of the source. Like-named read-outs stand apart in the source and are kept apart here.

Legend:
[1] = test system: MDA-MB-231 cells; experiment: Cell viability assay (MTT), MDA-MB-231; assay type: cell-based; conditions: for antiproliferatory inhibition rate in cell viability assay: at 20 µM, MDA-MB-231 cells; for IC50: Homo sapiens, MDA-MB-231, MTT, read-out: IC50 antiproliferative, MDA-MB-231
Experimental: MDA-MB-231cells were purchased from American Type Culture Collection (ATCC, Manassas, VA, USA). Cells were cultured in DMEM with 10% foetal bovine serum and incubated with 5% CO2. Antibodies used in this study were as follow: ATAD2 (ab176319, abcam), c-Myc (ab32072, abcam), cMyc^Ser62 (ab51156, abcam), Bax(5023, CST), Bcl-2(15071, CST), caspase8(9746, CST), caspase-3 (9665, CST), AKT (4691, CST), mTOR (2983, CST), p-mTOR^Ser2448 (5536,CST), ULK1 (6439, CST), p-ULK1^Ser555 (5869, CST), p62 (5114, CST), Beclin1 (4122, CST), LC3B (3868, CST), β-actin (3700, CST).
(§1) Cells were dispensed in 96-well plates at a density of 5 × 10^4 cells/ml. After 24 h incubation, cells were treated with different concentrations of compounds for the indicated periods. Cell viability was measured by the MTT assay.

[2] = target: T1, ATAD2 bromodomain (Homo sapiens, UniProt Q6PL18); experiment: TR-FRET assay, ATAD2 bromodomain; assay type: binding
T1 sequence (Q6PL18 980-1092 limits assumed): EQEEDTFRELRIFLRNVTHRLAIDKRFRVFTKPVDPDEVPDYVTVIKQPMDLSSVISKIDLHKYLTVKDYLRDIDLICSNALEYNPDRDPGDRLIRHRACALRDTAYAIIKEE
Experimental: (§2) The assay was performed by TR-FRET technology using recombinant bromodomain and BET Ligand[27]. The compounds were diluted in 100% DMSO. They were diluted 20 fold in 5% DMSO in Reaction Buffer and 2 µl of the dilution was added to a 20 µl reaction. The reaction mixture incubated for 180 min prior to reading the TR-FRET signal. TR-FRET was recorded as the ratio of the fluorescence of the acceptor and the donor dyes (acceptor/donor). Binding experiments were performed in duplicate at each concentration. The TR-FRET data were analysed using the computer software, Graphpad Prism.

[3] = target: T2, BRD3(1) (Homo sapiens, UniProt Q15059); experiment: TR-FRET assay, BRD3(1); assay type: binding
T2 construct: against the first and second bromodomains of BRD2, BRD3 and BRD4
Experimental: as §2

[4] = test system: PI3K-AKT-mTOR signalling in MDA-MB-231 cells; experiment: Western blot of PI3K-AKT-mTOR signalling; assay type: cell-based; conditions: MDA-MB-231, 1.25, 2.5, 5 µM, 24 h
Experimental: (§3) Adherent and floating cells were collected after treatment with AM879 for indicated times. Cells were lysed in a lysis buffer consisting of Hepes 50 mM pH 7.4, Triton-X-100 1%, sodium orthovanada 2 mM, sodium fluoride 100 mM, edetic acid 1 mM, PMSF 1 mM, aprotinin (Sigma, MO, USA) 10 mg/L and leupeptin (Sigma) 10 mg/L at 4 °C for 1 h. After 12,000 rpm centrifugation for 15 min, the protein content of supernatant was determined by the Bio-Rad DC protein assay (Bio-Rad Laboratories, Hercules, CA, USA). Equal amounts of the total protein were separated by 10–15% SDS-PAGE and transferred to PVDF membranes, and the membranes were soaked in blocking buffer (5% skimmed milk or BSA). Proteins were detected using primary antibodies, followed by HRP-conjugated secondary antibody and visualised by using ECL as the HRP substrate. Quantity One 4.4 was used to quantify.

[5] = target: T3, BRD2(2) (Homo sapiens, UniProt P25440); experiment: TR-FRET assay, BRD2(2); assay type: binding
T3 construct: against the first and second bromodomains of BRD2, BRD3 and BRD4
Experimental: as §2

[6] = test system: ULK1, p-ULK1, Beclin 1, p62, LC3 in MDA-MB-231 cells; experiment: Western blot of ULK1, p-ULK1, Beclin 1, SQSTM1/p62 and LC3; assay type: cell-based; conditions: MDA-MB-231, 1.25, 2.5, 5 µM, 24 h
Experimental: as §3

[7] = test system: ATAD2, c-Myc, p-cMyc in MDA-MB-231 cells; experiment: Western blot of ATAD2, c-Myc and p-cMyc; assay type: cell-based; conditions: MDA-MB-231, 1.25, 2.5 and 5.0 µM, 24 h
Experimental: as §3

[8] = target: T4, BRD4(2) (Homo sapiens, UniProt O60885); experiment: TR-FRET assay, BRD4(2); assay type: binding
T4 construct: against the first and second bromodomains of BRD2, BRD3 and BRD4
Experimental: as §2

[9] = test system: BRD2-4; experiment: TR-FRET selectivity, statement for BRD2, BRD3 and BRD4 together; assay type: binding; conditions: first and second bromodomains
Experimental: as §2

[10] = target: T5, BRD4(1) (Homo sapiens, UniProt O60885); experiment: TR-FRET assay, BRD4(1); assay type: binding
T5 construct: against the first and second bromodomains of BRD2, BRD3 and BRD4
Experimental: as §2

[11] = test system: MDA-MB-231, MDA-MB-436, MDA-MB-468, BT474 and MCF-7 cells; experiment: Anti-proliferation activity on breast cancer cell panel (MTT); assay type: cell-based; conditions: MDA-MB-231, MDA-MB-436, MDA-MB-468, BT474 and MCF-7 cells (Figure S1)
Experimental: as §1

[12] = test system: MDA-MB-231 cells; experiment: TUNEL apoptosis assay; assay type: cell-based; conditions: MDA-MB-231, 2.5 μM, 24 h
Experimental: TUNEL staining was also used to detect cell apoptosis. Cells were treated with DMSO or AM879 and then formalin-fixed.

[13] = target: T6, BRD2(1) (Homo sapiens, UniProt P25440); experiment: TR-FRET assay, BRD2(1); assay type: binding
T6 construct: against the first and second bromodomains of BRD2, BRD3 and BRD4
Experimental: as §2

[14] = test system: MDA-MB-231 cells; experiment: Apoptosis assay, flow cytometry of Annexin-V/PI double staining; assay type: cell-based; conditions: MDA-MB-231, 1.25, 2.5 and 5 μM, 24 h
[15] = target: T7, BRD3(2) (Homo sapiens, UniProt Q15059); experiment: TR-FRET assay, BRD3(2); assay type: binding
T7 construct: against the first and second bromodomains of BRD2, BRD3 and BRD4
Experimental: as §2

[16] = test system: Bax, Bcl-2, Caspase8, Caspase3 in MDA-MB-231 cells; experiment: Western blot of Bax, Bcl-2, Caspase8 and Caspase3; assay type: cell-based; conditions: MDA-MB-231, 1.25, 2.5 and 5 μM, 24 h
Experimental: as §3

[17] = test system: MDA-MB-231 cells; experiment: Autophagy assay, GFP/mRFP-LC3 puncta; assay type: cell-based; conditions: MDA-MB-231, GFP-mRFP-LC3, 24 h
[18] = design: method as in PMID 29043777, PMID 30226378, PMID 31398032; conditions: in vitro or vivo cellular assays; cited from earlier work
[19] = design: method as in PMID 27530368; conditions: in vivo as printed; cited from earlier work
[20] = test system: BET; design: method as in PMID 26230603; conditions: ATAD2 over BET; cited from earlier work
[21] = target: T1, ATAD2 bromodomain; conditions: cited from earlier work

T6 sequence (P25440 74-180 limits assumed): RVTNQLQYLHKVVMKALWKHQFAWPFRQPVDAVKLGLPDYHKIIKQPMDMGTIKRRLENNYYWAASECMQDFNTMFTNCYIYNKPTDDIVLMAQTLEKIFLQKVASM
T2 sequence (Q15059 34-140 limits assumed): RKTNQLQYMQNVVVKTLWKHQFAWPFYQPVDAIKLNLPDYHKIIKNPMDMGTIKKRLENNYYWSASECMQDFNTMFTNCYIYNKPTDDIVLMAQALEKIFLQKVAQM
T3 sequence (P25440 344-453 limits assumed): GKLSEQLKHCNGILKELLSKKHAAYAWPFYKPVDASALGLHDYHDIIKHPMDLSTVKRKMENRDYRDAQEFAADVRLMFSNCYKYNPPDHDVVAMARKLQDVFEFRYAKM
T7 sequence (Q15059 306-415 limits assumed): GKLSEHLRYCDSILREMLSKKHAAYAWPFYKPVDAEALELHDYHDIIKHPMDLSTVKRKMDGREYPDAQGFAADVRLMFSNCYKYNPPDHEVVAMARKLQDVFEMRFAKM

Compound: CCn1c(SCC(C)=O)nc2c1c(=O)[nH]c(=O)n2C [AG-690]
- antiproliferatory inhibition rate in cell viability assay [1]: less potency than AM879
- inhibition at 20 µM ([2]; at 20 µM, read-out: ATAD2 enzyme inhibition rate): 79%

Compound: CC1=C(C#N)c2nc(N)c(C#N)c(C)c2/C1=C\c1ccc(-c2cc(C(=O)O)ccc2Cl)o1 [AM879]
- IC50 [3]: > 50000 nM
- PI3K-AKT-mTOR signalling protein expression [4]: obviously downregulated expression of PI3K, AKT, mTOR and mTOR^Ser2448
- IC50 [5]: > 50000 nM
- expression of ULK1, p-ULK1, Beclin 1, SQSTM1/p62 and LC3-II [6]: elevation of ULK1, p-ULK1, Beclin 1 and LC3-II in a dose-dependent manner, as well as degradation of SQSTM1/p62
- expression of ATAD2, c-Myc and p-cMyc [7]: suppressed the expression of c-Myc; also recorded: inhibited the expression of ATAD2, c-Myc and the phosphorylation of c-Myc
- IC50 [8]: > 50000 nM
- inhibitory activity against BRD2-4 [9]: no inhibitory activity
- inhibitory activity against BRD2-4 ([9]; listed as AM-879): no activity
- IC50 [10]: > 50000 nM
- IC50 ([1]; 24 h): 2430 nM
- IC50 ([1]; 48 h): 2060 nM
- IC50 ([1]; 72 h): 1050 nM
- antiproliferatory inhibition rate in cell viability assay [1]: 90%
- anti-proliferation activity on breast cancer cells [11]: potent antiproliferatory activity
- apoptosis by TUNEL assay [12]: obvious FITC fluorescence were aggregated in the nucleus
- IC50 [13]: > 50000 nM
- apoptotic cells by Annexin-V/PI staining [14]: significant increase in early and late apoptotic cells
- IC50 [15]: > 50000 nM
- IC50 ([2]; Table 3, read-out: IC50 ATAD2): 3560 nM
- expression of Bax, Bcl-2, Caspase8 and Caspase3 [16]: elevated the expression of Bax, reduced the expression of Bcl-2, accompanied with the cleavage of caspase3 and caspase8
- autophagy induction (LC3 puncta) [17]: obvious aggregation of LC3 puncta
- autophagy induction (LC3 puncta) ([17]; listed as AM978): induce autophagy

Compound: COc1cc(Cl)c(C(=O)N[C@@H](CN[C@H]2CC[C@@H](N)CC2)Cc2ccc(C#N)cc2)cc1-c1ccc(CN[C@H](C)c2ccc(C)cc2)o1 [BAY-850, reference compound]
- activity in cellular assays [18]: lack activity
- IC50 ([2]; read-out: IC50 against ATAD2 bromodomain): 242 nM

Compound: CO[C@H]1CNC[C@@H](OCC2CCC(F)(F)CC2)[C@@H]1Nc1ncc(-c2cncc(C)c2)c2cc(C)c(=O)[nH]c12 [GSK8814]
- antiproliferative activity [19]: weak antiproliferative

Compound: CC1(C2CC2)NC(=O)N(CC(=O)Nc2ccc(Br)c(S(=O)(=O)N3CCCCC3)c2)C1=O (stereo not shown) [compound 23]
- activity in cellular assays [18]: lack activity

Compound: Cc1ccc(-c2cnc(NC3CC4CCC(N4)C3CCC3CCC(F)(F)CC3)c3[nH]c(=O)c(C)cc23)cn1 (stereo not shown) [compound 26]
- activity in cellular assays [18]: lack activity

Compound: Cc1cncc(-c2cnc(N[C@@H]3CCNC[C@H]3OCC3CCS(=O)(=O)CC3)c3[nH]c(=O)c(C)cc23)c1 [compound 38]
- BET selectivity [20]: 100 fold
- ATAD2 potency [21]: 100 nM
